Data published in ChEMBL document CHEMBL3112559, “Photodynamic inactivation of bioluminescent Escherichia coli by neutral and cationic pyrrolidine-fused chlorins and isobacteriochlorins” (Bioorg Med Chem Lett, 2014).
Activity calls are given as the source filed them. The calls are words filed in the database; no cut-off is given here.

Columns and labels:
Escherichia coli [1] = test: Antibacterial activity against Escherichia coli transfected with Vibrio fischeri lux operon assessed as log reduction of bioluminescence at 20 uM incubated for 10 mins in dark followed by 36 J cm'-2 white light irradiation for 150 mins by luminometry relative to control; format: functional
Escherichia coli [2] = test: Antibacterial activity against Escherichia coli transfected with Vibrio fischeri lux operon assessed as log reduction of bioluminescence at 5 uM incubated for 10 mins in dark followed by 43.2 J cm'-2 white light irradiation for 180 mins by luminometry relative to control; format: functional
Escherichia coli [3] = test: Dark toxicity in recombinant Escherichia coli transfected with Vibrio fischeri lux operon at 20 uM after 10 mins by luminometry; format: organism-based; details: in vivo
Escherichia coli [4] = test: Antibacterial activity against Escherichia coli transfected with Vibrio fischeri lux operon assessed as log reduction of bioluminescence at 20 uM incubated for 10 mins in dark followed by 43.2 J cm'-2 white light irradiation for 180 mins by luminometry relative to control; format: functional
Escherichia coli [5] = test: Dark toxicity in recombinant Escherichia coli transfected with Vibrio fischeri lux operon at 5 uM after 10 mins by luminometry; format: organism-based; details: in vivo
Escherichia coli [6] = test: Antibacterial activity against Escherichia coli assessed as log reduction of bioluminescence at 1 uM incubated for 30 mins followed by 10 J cm'-2 laser light irradiation relative to control; format: functional
Staphylococcus aureus = test: Antibacterial activity against Staphylococcus aureus assessed as log reduction of bioluminescence at 1 uM incubated for 30 mins followed by 10 J cm'-2 laser light irradiation relative to control; format: functional

Row | SMILES | FC (Escherichia coli [2]) | Activity (Escherichia coli [3]) | further results
1 | C[N+]1(C)CC2c3nc(c(-c4c(F)c(F)c(F)c(F)c4F)c4ccc([nH]4)c(-c4c(F)c(F)c(F)c(F)c4F)c4nc(c(-c5c(F)c(F)c(F)c(F)c5F)c5[nH]c(c3-c3c(F)c(F)c(F)c(F)c3F)C3C[N+](C)(C)CC53)C=C4)C2C1.[I-].[I-] (configuration not stated) | >5 | Non-toxic | FC (Escherichia coli [1]): 6.1
2 | CN1CC2c3nc(c(-c4c(F)c(F)c(F)c(F)c4F)c4ccc([nH]4)c(-c4c(F)c(F)c(F)c(F)c4F)c4nc(c(-c5c(F)c(F)c(F)c(F)c5F)c5[nH]c(c3-c3c(F)c(F)c(F)c(F)c3F)C3CN(C)CC53)C=C4)C2C1 (configuration not stated) | – | Non-toxic | FC (Escherichia coli [4]): 0.24
3 | CN1CC2c3nc(c(-c4c(F)c(F)c(F)c(F)c4F)c4ccc([nH]4)c(-c4c(F)c(F)c(F)c(F)c4F)c4nc(c(-c5c(F)c(F)c(F)c(F)c5F)c5ccc([nH]5)c3-c3c(F)c(F)c(F)c(F)c3F)C=C4)C2C1 (configuration not stated) | 0.57 | – | Activity (Escherichia coli [5]): Non-toxic
4 | CC1(C)Cc2cc3[nH]c(cc4nc(cc5[nH]c(cc1n2)cc5C(=O)NCCC[N+](C)(CCC[N+](C)(C)C)CCC[N+](C)(C)C)CC4(C)C)cc3C(=O)NCCC[N+](C)(CCC[N+](C)(C)C)CCC[N+](C)(C)C | – | – | FC (Escherichia coli [6]): 6; FC (Staphylococcus aureus): 6
5 | C[N+]1(C)CC2c3nc(c(-c4c(F)c(F)c(F)c(F)c4F)c4ccc([nH]4)c(-c4c(F)c(F)c(F)c(F)c4F)c4nc(c(-c5c(F)c(F)c(F)c(F)c5F)c5ccc([nH]5)c3-c3c(F)c(F)c(F)c(F)c3F)C=C4)C2C1.[I-] (configuration not stated) | 0.77 | Non-toxic | Activity (Escherichia coli [1]): Active
